Experimental data taken from patent US10576102B2, “KOC1-derived peptide and vaccine including same” (ONCOTHERAPY SCIENCE, INC., priority 2014, dated 2020).
Entries after “also recorded” stand apart in the source; their conditions may differ.

Experiments:
peptide-pulsed C1R-A01 [1] = assay: IFN-gamma ELISA of CTL lines and CTL clone (HLA-A*0101); format: cell-based, human
Protocol: CTLs were propagated in culture using methods similar to those disclosed by Riddell et al. (Walter E A et al., N Engl J Med 1995, 333(16): 1038-44; Riddell S R et al., Nat Med 1996, 2(2): 216-23). The CTLs were co-cultured in a total of 25 ml AIM-V medium containing 5% AS and 40 ng/ml anti-CD3 antibody with two types of Mitomycin C-treated human B lymphoblastoid cell lines at 5×10^6 cells. One day after beginning of the culturing, 120 IU/ml IL-2 was added to the culture. On days 5, 8 and 11, a fresh AIM-V/5% AS medium containing 30 IU/ml IL-2 was added to the culture (Tanaka H et al., Br J Cancer 2001, 84(1): 94-9; Umano Y et al., Br J Cancer 2001, 84(8): 1052-7; Uchida N et al., Clin Cancer Res 2004, 10(24): 8577-86; Suda T et al., Cancer Sci 2006, 97(5): 411-9; Watanabe T et al., Cancer Sci 2005, 96(8): 498-506).
CTLs were seeded to make 1 or 10 cells/well in 96 round-bottomed microtiter plates (Nalge Nunc International). The CTLs were co-cultured with two types of Mitomycin C-treated human B lymphoblastoid cell lines at 1×10^4 cells in a total of 150 micro-1/well 5% AS-containing AIM-V medium with 30 ng/ml anti-CD3 antibody and 125 IU/ml IL-2. Ten days later, 50 micro-1 of IL-2 was added to the medium to reach a final IL-2 concentration of 125 IU/ml. On day 14, the CTL activity was tested, and the CTL clones were propagated using the same method as described above (Uchida N et al., Clin Cancer Res 2004, 10(24): 8577-86; Suda T et al., Cancer Sci 2006, 97(5): 411-9; Watanabe T et al., Cancer Sci 2005, 96(8): 498-506).
(§1) Specifically, peptide-pulsed C1R-A01 (1×10^4 cells/well) was prepared as the stimulator cell. The induced CTLs, i.e., CTL lines and CTL clones, were used as the responder cell. The IFN-gamma ELISPOT assay and IFN-gamma ELISA were performed according to the manufacturer's manual.

peptide-pulsed C1R-A01 [2] = assay: In vitro CTL induction, IFN-gamma ELISPOT assay (HLA-A*0101); format: cell-based, human; conditions: CTLs induced with peptide-pulsed DCs from HLA-A*0101-positive volunteers; day 21; vs peptide-pulsed C1R-A01, compared with unpulsed control
Protocol: C1R (C1R-A01) that stably expresses HLA-A*0101 was used as a stimulator cell. A cDNA encoding the open-reading frame of HLA-A*0101 was amplified by PCR and cloned into an expression vector. C1R cells were transfected with the expression vector, and then selected using G418 (Invitrogen) for two weeks. The G418-selected cells were seeded into wells containing G418-added culture medium in a 96-well plate, and further cultured for 30 days. The exogenous HLA-A*0101 expression in C1R cells was verified by flow cytometric analysis.
Monocyte-derived dendritic cells (DCs) were used as the antigen-presenting cell to induce a cytotoxic T lymphocyte (CTL) response against peptides presented on human leukocyte antigens (HLAs). As described in the other sections, DCs were generated in vitro (Nakahara S et al., Cancer Res 2003, 63(14): 4112-8). Specifically, peripheral-blood mononuclear cells isolated from healthy volunteers (HLA-A*0101-positive) with the Ficoll-Paque plus solution (Pharmacia) were separated by attaching to plastic tissue culture dishes (Becton Dickinson) and concentrated as a monocyte fraction. The monocyte-concentrated population was cultured in the presence of 1000 IU/ml granulocyte macrophage colony-stimulating factor (R&D System) and 1000 IU/ml interleukin(IL)-4 (R&D System) in an AIM-V medium (Invitrogen) containing 2% heat-inactivated autologous serum (AS). After seven days of culturing, the cytokine-induced DCs were pulsed with 20 micro-g/ml each of the synthesized peptides in an AIM-V medium at 37 degrees C. for three hours in the presence of 3 micro-g/ml beta 2-microglobulin. Next, these peptide-pulsed DCs were inactivated by X-ray irradiation (20 Gy), and mixed in a 1:20 ratio with autologous CD8^+ T cells obtained by positive selection using the CD8 Positive Isolation Kit (Dynal). These culture products were seeded in a 48-well plate (Corning). Each well was made to contain 1.5×10^4 peptide-pulsed DCs, 3×10^5 CD8^+ T cells and 10 ng/ml IL-7 (R&D System) in 0.5 ml of the AIM-V/2% AS medium. Three days later, these culture products were added with a final concentration of 20 IU/ml IL-2 (CHIRON). On day 7 and day 14, T cells were further stimulated with peptide-pulsed autologous DCs. The DCs were prepared every time by the same method as above. On day 21, after the third peptide stimulation, CTL activities were examined against the peptide-pulsed C1R-A01 cells (Tanaka H et al., Br J Cancer 2001, 84(1): 94-9; Umano Y et al., Br J Cancer 2001, 84(8): 1052-7; Uchida N et al., Clin Cancer Res 2004, 10(24): 8577-86; Suda T et al., Cancer Sci 2006, 97(5): 411-9; Watanabe T et al., Cancer Sci 2005, 96(8): 498-506).
as §1

[3] = tested on: COS7 cells transfected with both KOC1 and HLA-A*0101; assay: Specific CTL activity against target cells expressing KOC1 and HLA-A*0101; format: cell-based, African green monkey; conditions: listed as KOC1-A01-9-96
Protocol: as §1
A cDNA encoding the open-reading frame of a target gene or HLA-A*0101 was amplified by PCR. The PCR-amplified product was cloned into an expression vector. Expression vectors were transfected using Lipofectamine 2000 (Invitrogen) following the manufacturer's recommended protocol. Two days after transfection, the transfected cells were harvested using versene (Invitrogen), and used as the stimulator cell for CTL activity assay (5×10^4 cells/well).
The CTL clone established against KOC1-A01-9-96 (SEQ ID NO: 86) was investigated for its ability to recognize target cells expressing KOC1 and the HLA-A*0101 molecule. COS7 cells transfected with both full-length KOC1 and the HLA-A*0101 gene (a specific model of target cells expressing KOC1 and the HLA-A*0101 gene) were prepared as the target cell. COS7 cells transfected with either full-length KOC1 or HLA-A*0101 were prepared as the control.

Sequence: VLDSLLVQY (a peptide derived from KOC1) [SEQ ID NO: 86]
- IFN-gamma production of CTL clone, ELISA (peptide-pulsed C1R-A01 [1]; CTL clone by limiting dilution, peptide-pulsed C1R-A01, listed as KOC1-A01-9-96): Potent IFN-gamma production
- IFN-gamma production of CTL lines, ELISA (peptide-pulsed C1R-A01 [1]; CTL lines, target cells pulsed with the peptide vs not pulsed, C1R-A01): potent IFN-gamma production
- peptide-specific CTL activity (IFN-gamma production), ELISPOT (peptide-pulsed C1R-A01 [2]): potent IFN-gamma production
- specific CTL activity of CTL clone against target cells expressing KOC1 and HLA-A*0101 ([3]; COS7 transfected with both full-length KOC1 and HLA-A*0101): specific CTL activity; also recorded: potent CTL activities
- specific CTL activity of CTL clone against control cells ([3]; COS7 transfected with either full-length KOC1 or HLA-A*0101): a significant specific CTL activity was not shown; also recorded: a significant specific CTL activity was not detected
